Assay results taken from ChEMBL document CHEMBL3352201, “P21-Activated Kinase 4 (PAK4) Inhibitors as Potential Cancer Therapy” (ACS Med Chem Lett, 2015).

Experiments:
[1] = target: Serine/threonine-protein kinase PAK 4 (Homo sapiens, UniProt O96013); experiment: Inhibition of human recombinant PAK4 kinase domain assessed as phosphorylation of FRET peptide substrate at Ser/Thr20 by […] assay
[2] = target: Serine/threonine-protein kinase PAK 1 (Homo sapiens, UniProt Q13153); experiment: Inhibition of human recombinant PAK1 kinase domain assessed as phosphorylation of FRET peptide substrate at Ser/Thr20 by […] assay
Chain of Serine/threonine-protein kinase PAK 1 (Q13153 whole entry, the tested form may be a part): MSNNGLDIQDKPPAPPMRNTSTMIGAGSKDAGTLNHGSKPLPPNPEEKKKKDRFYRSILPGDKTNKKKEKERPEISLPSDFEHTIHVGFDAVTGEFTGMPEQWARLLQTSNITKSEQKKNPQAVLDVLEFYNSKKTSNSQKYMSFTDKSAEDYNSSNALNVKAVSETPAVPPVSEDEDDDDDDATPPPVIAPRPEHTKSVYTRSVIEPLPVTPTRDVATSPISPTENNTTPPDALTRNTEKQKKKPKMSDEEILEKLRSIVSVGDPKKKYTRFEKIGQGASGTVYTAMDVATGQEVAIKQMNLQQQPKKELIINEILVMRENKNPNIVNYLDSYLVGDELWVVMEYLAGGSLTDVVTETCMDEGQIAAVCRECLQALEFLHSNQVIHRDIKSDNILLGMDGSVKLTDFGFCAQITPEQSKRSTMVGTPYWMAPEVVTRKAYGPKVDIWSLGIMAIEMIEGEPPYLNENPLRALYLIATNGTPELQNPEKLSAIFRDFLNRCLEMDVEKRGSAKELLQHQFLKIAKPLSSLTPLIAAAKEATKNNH

Chain of Serine/threonine-protein kinase PAK 4 (O96013 whole entry, the tested form may be a part): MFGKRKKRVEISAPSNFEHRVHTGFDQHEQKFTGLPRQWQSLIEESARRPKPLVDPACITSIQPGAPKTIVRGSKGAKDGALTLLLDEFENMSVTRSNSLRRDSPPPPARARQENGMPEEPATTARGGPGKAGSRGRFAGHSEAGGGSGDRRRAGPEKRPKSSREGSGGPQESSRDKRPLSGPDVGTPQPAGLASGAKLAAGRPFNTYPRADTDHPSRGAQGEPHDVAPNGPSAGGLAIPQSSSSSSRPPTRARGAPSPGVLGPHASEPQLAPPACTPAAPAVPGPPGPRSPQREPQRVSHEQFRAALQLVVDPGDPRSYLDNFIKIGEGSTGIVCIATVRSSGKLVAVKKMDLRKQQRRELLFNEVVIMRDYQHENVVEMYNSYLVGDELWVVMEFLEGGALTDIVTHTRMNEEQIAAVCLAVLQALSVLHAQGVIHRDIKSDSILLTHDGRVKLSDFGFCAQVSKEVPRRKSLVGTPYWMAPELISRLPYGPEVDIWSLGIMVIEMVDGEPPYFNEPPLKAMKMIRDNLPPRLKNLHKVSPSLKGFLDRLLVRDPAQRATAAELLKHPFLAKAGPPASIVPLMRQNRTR

Row | IC50 [1] | IC50 [2] | Compound
1 | 0.00477 µM |  | COCCNc1nc2ccc(C#CC3(O)CCCCC3)cc2n1-c1ccnc(N)n1
2 | 0.0655 µM | 9.6 µM | CCNc1nc2ccc(C#CC(C)(C)O)cc2n1-c1ncnc(N)n1
3 | 0.0355 µM | > 4.5 µM | CNc1nc2ccc(C#C[C@@](C)(O)c3cc(C)on3)cc2n1-c1ncnc(N)n1
4 | 0.0053 µM | > 4.5 µM | CCNc1nc2ccc(C#C[C@@](C)(O)c3cc(C)on3)cc2n1-c1ncnc(N)n1
